Counter-ions that a name gives are not always drawn. Like-named read-outs stand apart in the source and are kept apart here.
Legend:
Aβ1-42 = molecular target: T1, Aβ1-42 (Homo sapiens, UniProt P05067); test: Thioflavin T spectrofluorescence assay: inhibition of Aβ1-42 aggregation; type: biochemical
T1 construct: Aβ1-42 lyophilized powder (Bachem) was reconstituted in hexafluoroisopropanol (HFIP) to 1 mM; purchased Bachem
Method: (§1) The objective of this example was to evaluate the capacity of the compounds of the invention to inhibit the aggregation of (Aβ)1-42 peptide and to disaggregate pre-aggregated Aβ1-42 using a thioflavin T spectrofluorescence assay.
(§2) Aβ1-42 lyophilized powder (Bachem) was reconstituted in hexafluoroisopropanol (HFIP) to 1 mM. The peptide solution was sonicated for 15 min at room temperature, agitated overnight, and aliquots were placed into non-siliconized microcentrifuge tubes. The HFIP was then evaporated under a stream of argon. The resulting peptide film was dried under vacuum for 10 min, tightly sealed and stored at −80° C. until used.
Aβ1-42 peptide film was dissolved in DMSO to reach 400 μM. Assay solution in PBS was prepared in non-siliconized incubation tubes to reach the following concentrations: 330 μM small molecule, 33 μM Aβ1-42, 10 μM thioflavin T (ThT), and 12.8% DMSO. Therefore, the final molar ratio of small molecule to Aβ1-42 was 10:1. A positive control without a small molecule was prepared to measure maximum RFU. A negative control without Aβ1-42 was prepared for each small molecule. 3-aminopyrazole trimer (Trimer) was tested in all assays to ascertain reproducibility between independent experiments. The solutions were then incubated for 24 h at 37° C., and the spectrofluorescence (relative fluorescence units; RFU) read in six replicates in black 384-well assay plates (Perkin-Elmer) on a Perkin-Elmer FluoroCount spectrofluorometer. Inhibition of aggregation is expressed as mean % inhibition±1 standard deviation (SD) according to the following equation: […]

preformed Aβ1-42 fibers = molecular target: T2, preformed Aβ1-42 fibers (Homo sapiens, UniProt P05067); test: Thioflavin T spectrofluorescence assay: disaggregation of preformed Aβ1-42 fibers; type: biochemical; details: Table 5; 330 μM small molecule, 10:1 molar ratio to pre-aggregated Aβ1-42, additional 24 h at 37° C.; mean ± SD of two independent experiments
T2 construct: Aβ1-42 lyophilized powder (Bachem) was reconstituted in hexafluoroisopropanol (HFIP) to 1 mM; purchased Bachem
T2 sequence (P05067 672-713 limits assumed): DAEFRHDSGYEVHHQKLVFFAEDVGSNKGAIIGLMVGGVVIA
Method: as §1, §2
This solution was then allowed to aggregate at 37° C. for 24 h after which a small molecule and ThT were added to obtain a final concentration of 330 μM small molecule and 10 μM ThT. […] This solution was then incubated for additional 24 h at 37° C. The spectrofluorescence was then measured and % disaggregation calculated. Disaggregation is expressed as mean % disaggregation±1 standard deviation (SD) according to the same equation as for the inhibition of aggregation.

[1] = molecular target: T3, Oregon Green labeled Aβ(1-42) (Homo sapiens, UniProt P05067); test: FCS-assay with 5 nM Oregon Green labeled Aβ-peptide (disaggregation of preformed aggregates); type: biochemical
T3 construct: DMSO-stock solutions of Oregon Green labeled Aβ(1-42) 1:1 with deionized water
T3 sequence (P05067 672-713 limits assumed): as above
Method: In order to analyse the disaggregating properties of the compounds, preformed aggregates were used, which were induced straight before the FCS-measurement by diluting low concentrated (500 nM) DMSO-stock solutions of Oregon Green labeled Aβ(1-42) 1:1 with deionized water. The final concentration of Oregon Green labeled Aβ-peptide was 5 nM in 1×PBS and 3% DMSO.
To improve the reproducibility of the measurements of the concentration dependencies all samples were prepared fourfold.

[2] = Table 3, 10:1 small molecule to Aβ1-42 molar ratio, 24 h at 37° C., mean ± SD of two independent experiments, read-out: % Inhibition
[3] = read-out: Percentage of the “number of peaks” value compared to the control reaction without added ligand
[4] = read-out: Percentage of the “peaks × height“ value compared to the control reaction without added ligand

T1 sequence (P05067 672-713 limits assumed): as above

SMILES	inhibition at 330 µM (Aβ1-42; [2])	melting point	other results
Cc1ccc(-c2cc(NCC(=O)Nc3cc(-c4cccs4)[nH]n3)n[nH]2)cc1 [Compound 1aa, N-(5-(Thiophen-2-yl)-1H-pyrazol-3-yl)-2-(5-p-tolyl-1H-pyrazol-3-ylamino)acetamide]	50.4 ± 0.9%	246 °C	–
Cc1ccc(-c2cc(NC(=O)CNc3cc(-c4ccc(Cl)cc4)[nH]n3)n[nH]2)cc1 [Compound 1ad, 2-(5-(4-Chlorophenyl)-1H-pyrazol-3-ylamino)-N-(5-p-tolyl-1H-pyrazol-3-yl)acetamide]	55 ± 11.9%	251 °C	–
Brc1ccc(-c2cc(NCCNc3cc(-c4ccc(Br)cc4)[nH]n3)n[nH]2)cc1 [Compound 1u, N^1,N^2-bis(5-(4-Bromophenyl)-1H-pyrazol-3-yl)ethane-1,2-diamine bishydrochloride]	–	–	% disaggregation (preformed Aβ1-42 fibers): 78.8 ± 5.1%; inhibition at 330 µM (Aβ1-42; 24 h): 77.2 ± 1.5%; remaining activity at 0.2 µM [1, 3]: 58%; remaining activity at 1 µM [1, 3]: 60%; remaining activity at 5 µM [1, 3]: 47.5%; remaining activity at 25 µM [1, 3]: 45%; remaining activity at 100 µM [1, 3]: 35%; remaining activity at 0.2 µM [1, 4]: 59.2%; remaining activity at 1 µM [1, 4]: 62.4%; remaining activity at 5 µM [1, 4]: 48%; remaining activity at 25 µM [1, 4]: 49.2%; remaining activity at 100 µM [1, 4]: 27.2%
Cc1ccc(-c2cc(NCC(=O)Nc3cc(C)[nH]n3)n[nH]2)cc1 [Compound 1x, N-(5-Methyl-1H-pyrazol-3-yl)-2-(5-p-tolyl-1H-pyrazol-3-ylamino)acetamide]	35.9 ± 4.7%	180 °C	–
Cc1ccc(-c2cc(NCCNc3cc(-c4ccc(Cl)cc4)[nH]n3)n[nH]2)cc1 [Compound 1ae, N-(5-(4-Chlorophenyl)-1H-pyrazol-3-yl)-N′-(5-p-tolyl-1H-pyrazol-3-yl)ethane-1,2-diamine bishydrochloride]	–	–	% disaggregation (preformed Aβ1-42 fibers): 76.0 ± 2.1%; inhibition at 330 µM (Aβ1-42; 24 h): 83.7 ± 1.7%; remaining activity at 0.01 µM [1, 3]: 72.3%; remaining activity at 0.1 µM [1, 3]: 59.8%; remaining activity at 0.2 µM [1, 3]: 45.5%; remaining activity at 0.01 µM [1, 4]: 65.5%; remaining activity at 0.1 µM [1, 4]: 60.4%; remaining activity at 0.2 µM [1, 4]: 53.1%
O=C(CNc1cc(-c2cccs2)[nH]n1)Nc1cc(-c2ccc(Cl)cc2)[nH]n1 [Compound 1af, 2-(5-(Thiophen-2-yl)-1H-pyrazol-3-ylamino)-N-(5-(4-chlorophenyl)-1H-pyrazol-3-yl)acetamide]	37.6 ± 10.4%	233 °C	–
c1ccc(-c2cc(NCCNc3cc(-c4ccccc4)[nH]n3)n[nH]2)cc1 (as salt: hydrochloride) [Compound 1e, N^1,N^2-bis(5-Phenyl)-1H-pyrazol-3-yl)ethane-1,2-diamine bishydrochloride]	–	204 °C	–
Cc1ccc(-c2cc(NCC(=O)Nc3cc(-c4ccc(C)cc4)[nH]n3)n[nH]2)cc1 [Compound 1y, N-(5-p-Tolyl-1H-pyrazol-3-yl)-2-(5-p-tolyl-1H-pyrazol-3-ylamino)acetamide]	30.7 ± 3.8%	238 °C	–
Fc1ccc(-c2cc(NCCNc3cc(-c4ccc(F)cc4)[nH]n3)n[nH]2)cc1 (as salt: hydrochloride) [Compound 1ak, N^1,N^2-bis(5-(4-Fluorophenyl)-1H-pyrazol-3-yl)ethane-1,2-diamine bishydrochloride]	–	239 to 240 °C	–
Cc1ccc(-c2cc(NCc3ccc(CNc4cc(-c5ccc(C)cc5)[nH]n4)cc3)n[nH]2)cc1 (as salt: hydrochloride) [Compound 1ap, N,N′-(1,4-Phenylenebis(methylene))bis(5-p-tolyl-1H-pyrazol-3-amine) dihydrochloride]	–	184 °C	–
Clc1ccc(-c2cc(NCCNc3cc(-c4ccc(Cl)cc4)[nH]n3)n[nH]2)cc1 (as salt: hydrochloride) [Compound 1f, N^1,N^2-bis(5-(4-Chlorophenyl)-1H-pyrazol-3-yl)ethane-1,2-diamine bishydrochloride]	–	195 °C	–
c1ccc(-c2ccc(-c3cc(NCCNc4cc(-c5ccc(-c6ccccc6)cc5)[nH]n4)n[nH]3)cc2)cc1 (as salt: hydrochloride) [Compound 1am, N^1-(5-(Biphenyl-4-yl)-1H-pyrazol-3-yl)-N^2-(3-(biphenyl-4-yl)-1H-pyrazol-5-yl)ethane-1,2-diamine bishydrochloride]	–	220 to 222 °C	–
Clc1ccc(-c2c[nH]nc2NCCNc2n[nH]cc2-c2ccc(Cl)cc2)cc1 (as salt: hydrochloride) [Compound 1s, N^1,N^2-bis(4-(4-Chlorophenyl)-1H-pyrazol-3-yl)ethane-1,2-diamine bishydrochloride]	–	228 °C	–
O=C(CNc1cc(-c2ccc(Cl)cc2)[nH]n1)Nc1cc(-c2cccs2)[nH]n1 [Compound 1ag, N-(5-(Thiophen-2-yl)-1H-pyrazol-3-yl)-2-(5-(4-chlorophenyl)-1H-pyrazol-3-ylamino)acetamide]	20.8 ± 5.7%	257 °C	–
Cc1ccc(-c2cc(NCc3cccc(CNc4cc(-c5ccc(C)cc5)[nH]n4)c3)n[nH]2)cc1 (as salt: hydrochloride) [Compound 1ao, N,N′-(1,3-Phenylenebis(methylene))bis(5-p-tolyl-1H-pyrazol-3-amine) dihydrochloride]	–	183 °C	–
Cc1ccc(-c2cc(NCC(=O)Nc3cc(-c4ccc(Cl)cc4)[nH]n3)n[nH]2)cc1 [Compound 1ac, N-(5-(4-Chlorophenyl)-1H-pyrazol-3-yl)-2-(5-p-tolyl-1H-pyrazol-3-ylamino)acetamide]	12.4 ± 5.1%	257 °C	–
Cc1ccc(-c2cc(NC(=O)CNc3cc(-c4cccs4)[nH]n3)n[nH]2)cc1 [Compound 1z, 2-(5-(Thiophen-2-yl)-1H-pyrazol-3-ylamino)-N-(5-p-tolyl-1H-pyrazol-3-yl)acetamide]	22.1 ± 12.5%	227 °C	–
c1ccc(Cc2cc(NCCNc3cc(Cc4ccccc4)[nH]n3)n[nH]2)cc1 (as salt: hydrochloride) [Compound 1l, N^1,N^2-bis(5-Benzyl-1H-pyrazol-3-yl)ethane-1,2-diamine dihydrochloride]	–	177 to 178 °C	–
Cc1ccc(-c2cc(NCC(C)(C)CNc3cc(-c4ccc(C)cc4)[nH]n3)n[nH]2)cc1 (as salt: hydrochloride) [Compound 1an, dihydrochloride]	–	151 °C	–
c1[nH]nc(NCCNc2n[nH]cc2C2CC2)c1C1CC1 (as salt: hydrochloride) [Compound 1v, N^1,N^2-bis(4-Cyclopropyl-1H-pyrazol-3-yl)ethane-1,2-diamine bishydrochloride]	–	178 to 182 °C (dec.)	–
FC(F)(F)c1cccc2[nH]nc(NCCNc3n[nH]c4cccc(C(F)(F)F)c34)c12 (as salt: hydrochloride) [Compound 1ai, N,N′-bis(4-(Trifluoromethyl)-1H-indazol-3-yl)ethane-1,2-diamine bishydrochloride]	–	222 °C	–
Cc1ccc(-c2cc(NCCNc3cc(-c4ccc(Cl)cc4)[nH]n3)n[nH]2)cc1 (as salt: hydrochloride) [Compound 1ae, N-(5-(4-Chlorophenyl)-1H-pyrazol-3-yl)-N′-(5-p-tolyl-1H-pyrazol-3-yl)ethane-1,2-diamine bishydrochloride]	–	182 °C	–
COc1ccc(-c2cc(NCCNc3cc(-c4ccc(OC)cc4)[nH]n3)n[nH]2)cc1 [Compound 1g, N^1,N^2-bis(5-(4-Methoxyphenyl)-1H-pyrazol-3-yl)ethane-1,2-diamine bishydrochloride]	–	–	% disaggregation (preformed Aβ1-42 fibers): 66.6 ± 4.2%; inhibition at 330 µM (Aβ1-42; 24 h): 68.2 ± 7.7%
c1ccc(-c2cc(NCCNc3cc(-c4ccccn4)[nH]n3)n[nH]2)nc1 (as salt: hydrochloride) [Compound 1al, N^1,N^2-bis(5-(Pyridin-2-yl)-1H-pyrazol-3-yl)ethane-1,2-diamine tetra-hydrochloride]	–	> 250 °C	–
